Measured values: ChEMBL document CHEMBL5236649 (Bioorg Med Chem, 2023)

Assays:
D(3) dopamine receptor = D(3) dopamine receptor (Rattus norvegicus, UniProt P19020); experiment: Displacement of [3H]-spiroperidol from rat D3 receptor expressed in HEK293 cells assessed as inhibition constant by Cheng-Prusoff equation analysis
D(2) dopamine receptor [1] = target: D(2) dopamine receptor (Homo sapiens, UniProt P14416); experiment: biochemical
D(2) dopamine receptor [2] = target: D(2) dopamine receptor (Rattus norvegicus, UniProt P61169); experiment: biochemical
Description: Displacement of [3H]-spiroperidol from rat D2L receptor expressed in HEK293 cells assessed as inhibition constant by Cheng-Prusoff equation analysis

SMILES | Ki (D(3) dopamine receptor) [nM] | EC50 (D(2) dopamine receptor [1]) [nM] | Ki (D(2) dopamine receptor [2]) [nM]
CCCN(CC(=O)N1CCN(C(=O)CN(CCC)[C@H]2CCc3c(O)cccc3C2)CC1)[C@H]1CCc2c(O)cccc2C1 | 115 | – | –
CCCN(CCc1cc(O)c(CCN(CCC)[C@H]2CCc3nc(N)sc3C2)cc1O)[C@H]1CCc2nc(N)sc2C1 | 6.87 | 34.4 | –
CCCN(CCc1ccc(CCN(CCC)[C@H]2CCc3nc(N)sc3C2)cc1)[C@H]1CCc2c(O)cccc2C1 | 2.15 | – | 4.91
CCCN(CCN1CCN(CCN(CCC)[C@H]2CCc3c(O)cccc3C2)CC1)[C@H]1CCc2c(O)cccc2C1 | 3.56 | – | 12
CCCN(CCc1ccc(CCN(CCC)[C@H]2CCc3c(O)cccc3C2)cc1)[C@H]1CCc2c(O)cccc2C1 | 3.86 | – | 3.88
